Source: patent publication US20050009772A1, “Methods and compositions for the treatment of glaucoma and other retinal diseases” (The Regents of the University of California, priority 2003, published 2005)
“Also recorded” adds a separate entry of the source.

What was measured:
[1] = tested on: retinal ganglion cells (RGCs); assay: Density of DTMR-labeled RGCs in rat glaucoma model (Experiment 2); assay type: in vivo
Description: GGA was then given twice a week at the same dose until euthanasia. Sustained elevation of intraocular pressure (IOP) was maintained by performing trabecular laser photocoagulation three weeks after the first photocoagulation. […] IOP and body weight were measured once a week. […] Rats were anesthetized with intramuscular injections of 0.8 ml/kg of the anesthetic cocktail described above. A previously published procedure was modified to produce chronic moderately elevated IOP unilaterally, while the untreated contralateral eye served as the comparative control.40 Animals were injected intracamerally with 10 μl of 35% India ink (Becton Dickinson, Cockeysville, Md.) in 0.01 M PBS after removing a similar volume of aqueous. At the end of the procedure, Tobrex ophthalmic ointment (tobramycin 0.3%; Alcon, Fort Worth, Tex.) was applied topically. Five days after intracameral injection of India ink, a dark band at the limbus was noted due to the aggregation of carbon particles in the trabecular meshwork.38 After anesthesia, approximately 200 laser burns were delivered ab externo to the pigmented trabecular band at laser settings of 200 μm diameter, 200 mW power and 0.2 seconds duration. Three weeks after the first laser treatment, another trabecular laser photocoagulation was performed without further injection of ink. […] A cross section of the optic nerve was made with the needle knife through the opening of the optic nerve sheath, with care not to damage the adjacent blood supply. DTMR crystals were applied to the proximal cut surface of the optic nerve to label RGCs by fast retrograde axonal transport. After euthanasia and enucleation, the retinas were dissected and flattened with four radial cuts (superotemporal, inferotemporal, superonasal, and inferonasal). They were placed with vitreal side up on glass slides, dried in the dark at room temperature overnight and mounted. The retinas were examined with a fluorescence microscope (Axioplan; Carl Zeiss, Oberkochen, Germany) equipped with a filter that permits visualization of rhodamine fluorescence (excitation filter BP 546, barrier filter LP590; Carl Zeiss). The counting of RGCs was conducted by 2 examiners in a masked fashion. […] Each rectangular area measured 0.475 mm×0.362 mm and the total counted area corresponded to approximately 3.1% of each total retinal area. Data are expressed as number of RGCs per mm2.

[2] = tested on: HSP72; assay: Quantitative immunohistochemical analysis of HSP72 in the RGCL after 1 week of IOP elevation (Experiment 3); assay type: in vivo, rat; conditions: quercetin = co-administered with GGA
Description: TdT-mediated biotin-dUTP nick end labeling (TUNEL) and immunohistochemical analysis for HSP72 and HSC70 were performed.
Animals were deeply anesthetized with intramuscular injections of 0.8 ml/kg of a cocktail of 5 ml ketamine (100 mg/ml), 2.5 ml xylazine (20 mg/ml), 1.0 ml acepromazine (10 mg/ml), and 1.5 ml normal saline. Then they were transcardially perfused with 4% paraformaldehyde in 0.1 M phosphate buffer. The enucleated eyeballs were immersed in fixative for 1 hour, bisected and post-fixed overnight. The eyes were embedded in paraffin and sectioned at a four-μm thickness along the vertical meridian through the optic nerve head. After deparaffinization and hydration, a species-specific Vectastain ABC kit (Vector Laboratories, Inc., Burlingame, Calif.) was chosen to match the species of primary antibody and the manufacturer's procedures were followed. The tissue sections were incubated with blocking serum solution in PBS for 1 hour. This was followed by incubation with primary antibody at 4° C overnight. The antibodies were mouse monoclonal antibody against HSP72 (1:500; StressGen Biotechnologies Corp., Victoria, British Columbia, Canada), goat polyclonal antibody against HSP72 (1:1000; Santa Cruz Biotechnology, Inc., Santa Cruz, Calif.) or rat monoclonal antibody against HSC70 (1:200; StressGen). Antigen-antibody complexes were detected by an avidin-biotin-peroxidase technique (Vectastain ABC Kit; Vector Laboratories). Diaminobenzidine (DAB) was used to produce a brown color in the target tissue and the slides were permanently mounted. As a negative control, alternate retinal section was incubated with blocking solution by replacing the primary antibody or with anti-rabbit secondary antibody by replacing the original secondary antibody.
Immunohistochemical staining was analyzed quantitatively with a computer-assisted image processing unit (Image-Pro Plus software, Media Cybernetics, Silver Spring, Md.) and the “count-measure” function. Images of immuno-stained sections were captured with a digital camera (Cool snap, RS Photometric, Tucson, Ariz.) attached to the microscope (Axio plan, Carl Zeiss, Oberkochen, Germany) at 630× magnification under oil immersion. The system was calibrated according to the supplier's manual before the analysis. For each digital image, all individual cells in the RGCL were marked by a masked examiner and the optical density of each cell was measured. The relative intensities of cells in the RGCL were measured and averaged (±SEM) to yield a single value representing one retina.

[3] = tested on: TUNEL positive cells in the RGCL; assay: TUNEL analysis of RGCL after 1 week of IOP elevation (Experiment 3); assay type: in vivo, rat
Description: Experiment 3 was performed to investigate the inhibition of apoptosis with GGA administration after 1 week of IOP elevation (n=56).
Rats were anesthetized with intramuscular injections of 0.8 ml/kg of the anesthetic cocktail described above. […] At the end of the procedure, Tobrex ophthalmic ointment (tobramycin 0.3%; Alcon, Fort Worth, Tex.) was applied topically. Five days after intracameral injection of India ink, a dark band at the limbus was noted due to the aggregation of carbon particles in the trabecular meshwork.38 After anesthesia, approximately 200 laser burns were delivered ab externo to the pigmented trabecular band at laser settings of 200 μm diameter, 200 mW power and 0.2 seconds duration. Three weeks after the first laser treatment, another trabecular laser photocoagulation was performed without further injection of ink.
Four-μm thick paraffin embedded sections along the vertical meridian of the optic nerve head were collected and a minimum of 6 retinal sections (8 μm apart) per eyeball was used for counting the number of TUNEL positive cells in the RGCL. Only full length and undamaged retinal sections without oblique orientation were used. The procedures described in the ApopTag Peroxidase In Situ Apoptosis Detection Kit (Intergen Co., Purchase, N.Y.) were followed and diaminobenzidine (Sigma, St. Louis, Mo.) was used as a color substrate. Counting was performed by two masked investigators with light microscopy, and averaged.

[4] = tested on: HSP72; assay: Western blot for HSP72 in enriched RGC fraction after systemic administration of GGA (Experiment 1); assay type: in vivo, rat; conditions: GGA 200 mg/kg daily i.p.
Description: Experiment 1 was performed to evaluate the expression of HSP72 and HSC70 in RGCs after systemic administration of GGA with Western blot analysis and immunohistochemistry. For Western blotting, twelve rats were equally divided into 6 groups. Three groups of animals were given intraperitoneal injections of GGA 200 mg/kg daily and were euthanized after 1-, 3- or 7 days of administration of GGA. Three control groups were intraperitoneally administered 1) saline-vehicle daily for 7 days; 2) GGA with 4 mg/kg of quercetin (Sigma, St. Louis, Mo.) daily for 7 days; and 3) untreated animals. Enriched RGC fraction was harvested from 2 retinas of each group and used for Western blot analysis. The same experiment for isolation of RGCs and Western blotting was repeated with the other 2 retinas-from each group.
A solution of 80 mg/mL GGA was prepared in saline (Balanced salt solution; Alcon Laboratories, Inc., Fort Worth, Tex.) and emulsified for one hour in an ultrasonic generator (Branson Ultrasonic Corp., Danbury, Conn.) immediately before administration. Intraperitoneal injections of GGA were given at a dose of 200 mg/kg. Saline-vehicle was prepared and administered in the same fashion in vehicle-treated control groups.
A previously described method was modified to partially purify RGCs from other retinal cells in rat retinas.38 Briefly, two dissected rat retinas from each subgroup were washed in 2.5 ml of calcium- and magnesium-free phosphate buffered saline (PBS) at pH 7.4, and incubated in 1.25 ml of PBS containing 0.5 mg/ml trypsin and 0.01% deoxyribonuclease for 15 minutes at 37° C. This was followed by washing the retinas twice in 2.5 ml of minimal essential medium (MEM) containing 10% (vol/vol) fetal bovine serum. The retinas were subsequently washed in 2.5 ml of MEM twice and dissociated in 3 ml of MEM. The cell suspension was then mixed with 1.5 ml of 30% metrizamide (ICN Biomedicals, Inc., Aurora, Ohio) in MEM to a final concentration of 10 metrizamide. This mixture was then overlaid with 5% metrizamide in MEM, and the gradient was centrifuged at 4500 rpm (HB-4; Sorvall Instruments, Newtown, Conn.) for 25 minutes at 4° C. The cells in the 5% to 10% interface were collected. and washed in 25 ml of cold MEM. The washed cells were pelleted by centrifugation at 250×g for 10 minutes (Juan 3000C centrifuge, Winchester, Va.). The cells were then resuspended in 400 μl of MEM buffer, and the protein concentration in the cell suspension was measured with a bicinchoninic acid (BCA) protein assay kit (Pierce, Rockford, Ill.).
Western blot analysis was performed according to the procedure described by Towbin et al.39 Aliquots of 20 μg of protein from enriched RGCs were separated on a 12% SDS-polyacrylamide minigel (Bio-Rad, Hercules, Calif.) and transferred to the membrane (Immunobilon-P; Millipore Corporation, Bedford, Mass.). The membrane was blocked by incubation in 0.1% Tween-20 in 100 mM Tris-buffered saline containing 10% nonfat dried milk for 1 hour. The membranes were incubated with mouse monoclonal antibody against HSP72 (1:1000; StressGen Biotechnologies Corp., Victoria, British Columbia, Canada) or with rat monoclonal antibody against HSC70 (1:1000; StressGen) overnight and then biotinylated rabbit anti-mouse secondary antibody (1:500; Amersham Pharmacia Biotech, Inc., Piscataway, N.J.) or biotinylated goat anti-rat secondary antibody (1:500; Amersham Pharmacia) for 1 hour. This was followed by incubation with streptavidin-conjugated horseradish peroxidase (1:2000; Amersham Pharmacia) for 40 minutes. The immunoreactive bands were detected by chemiluminescence with an enhanced chemiluminescence Western blot reagent (Amersham Pharmacia).

[5] = contralateral controls (normal IOP)
[6] = retinas with IOP elevation, 5 weeks

With Geranylgeranylacetone [GGA] the “density of DTMR-labeled RGCs” value [1, 5] was 1077±48 cells/mm2, the “density of DTMR-labeled RGCs vs vehicle-treated controls (in words)” value [1, 5] was “no statistical significance” and the “density of DTMR-labeled RGCs” value [1, 6] was 1044±36 cells/mm2. For the same substance, the “more DTMR-labeled cells preserved compared with vehicle” value [1, 6] was 57%, the “effect on density of DTMR-labeled RGCs (in words)” value ([1]; retinas with IOP elevation, 5 weeks, quercetin = co-administered with GGA) was “higher density; also recorded: partial” and the “HSP72 expression (immunoreactive intensity) in the RGCL” value ([2]; control (normal IOP) retinas vs vehicle-alone controls) was “increased expression of HSP72; also recorded: Increased immunoreactivity of HSP72”. The “HSP72 expression (immunoreactive intensity) in the RGCL” value ([2]; retinas with IOP elevation, 1 week) was “apparently further increased”, the “inhibition of cell death” value ([3]; 1 week of IOP elevation) was 57% and the “number of TUNEL positive cells in the RGCL” value ([3]; 1 week of IOP elevation) was 0.53±0.11 per retinal section. For the same substance, the “effect on number of TUNEL positive cells (in words)” value ([3]; elevated IOP retinas, 1 week, quercetin = co-administered with GGA) was “significantly reduced”, the “immunoreactivity of HSP72 in RGCs (immunoblot)” value (“immunoreactivity of HSP72” for short) ([4]; 1 day) was “mild increase in immunoreactivity” and the “immunoreactivity of HSP72” value ([4]; 3 days) was “increased HSP72 expression; also recorded: strong increase in immunoreactivity”. The “immunoreactivity of HSP72” value ([4]; 7 days) was “increased HSP72 expression; also recorded: strong increase in immunoreactivity”.
